“And” between values parts separate entries of the source, which are not always exact repeats. Equal values may be shown once. The source made the active and inactive calls. How the calls were made is not given here.
Target: Prostaglandin E2 receptor EP2 subtype (Homo sapiens) (UniProt P43116)
Assay: EP2 receptor modulators, dose response, cell-based, human EP2, PGE2 EC50 shift (AID 1421)
Settings: EP2-expressing cells, PGE2 EC50 shift by compound

Chain of Prostaglandin E2 receptor EP2 subtype (Homo sapiens) (P43116 whole entry, looked up): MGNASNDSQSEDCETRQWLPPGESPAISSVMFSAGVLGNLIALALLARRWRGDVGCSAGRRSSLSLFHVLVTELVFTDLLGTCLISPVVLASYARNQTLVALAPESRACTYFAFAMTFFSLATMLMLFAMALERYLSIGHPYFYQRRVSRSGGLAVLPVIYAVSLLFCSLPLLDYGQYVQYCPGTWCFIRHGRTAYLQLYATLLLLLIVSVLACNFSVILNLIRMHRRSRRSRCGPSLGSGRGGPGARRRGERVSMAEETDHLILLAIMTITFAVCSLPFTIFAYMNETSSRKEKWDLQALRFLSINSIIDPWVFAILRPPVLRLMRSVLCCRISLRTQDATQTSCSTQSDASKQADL

| Compound | outcome |
| --- | --- |
| CCC(=O)N(CCC(Cc1ccccc1)c1ccco1)Cc1ccco1 (stereo not drawn) | active |
| Cc1ccc(C(=O)c2c(NC(=O)c3ccncc3)sc3c2CCCC3)cc1 | active |
| O=C(O)COc1ccc(/C=C/c2ccc3cccc([N+](=O)[O-])c3n2)cc1 | active |
| CC1CCN(c2ccccc2NC(=O)c2ccc(C#N)cc2F)CC1 | active |
| NC(=NCCC[C@H](N)C(=O)O)N[N+](=O)[O-] | active |
| Cc1ccccc1CN(C)CC(=O)Nc1ccccc1Oc1ccccc1 | active |
| CCOP(=S)(OCC)Oc1nc(Cl)c(Cl)cc1Cl | active |
| O=C(Nc1ccccc1N1CCCCC1)c1ccccc1F | active |
| Cc1sc(NC(=O)c2ccccc2F)c(CN2CCCCC2C)c1C (stereo not drawn) | active |
| CCc1nc(N2CCCCC2)c2oc3ccccc3c2n1 | active |

Same assay, conditions: EP2-expressing cells, PGE2 EC50 shift by compound; measured here: PGE2 EC50 at 6.7 uM compound

| Compound | PGE2 EC50 with compound |
| --- | --- |
| O=C(CSc1ncnc2c1oc1ccccc12)Nc1ccccc1F | 1.86 nM |
| CCC(=O)N(CCC(Cc1ccccc1)c1ccco1)Cc1ccco1 (stereo not drawn) | 0.86 nM |
| CN(C)c1nccc(N(Cc2ccccc2)Cc2ccccc2)c1C#N | 1.16 nM |
| CCCn1c(=O)[nH]c(=O)c2c1nc(-c1ccccc1OC(F)F)n2CCOC | 1.08 nM |
| Cc1ccc(-n2c(SCC(N)=O)nc3c(c2=O)C2(CCCC2)Cc2ccccc2-3)cc1 | 2.78 nM |
| COc1cccc2[nH]c3c(N4CCC(C)CC4)ncnc3c12 | 2.38 nM |
| COc1ccccc1C(=O)NC(=S)Nc1cc(C(=O)O)ccc1C | 1.18 nM |
| CC1CN(c2nc3ccccc3cc2-c2ccccc2)CC(C)O1 (stereo not drawn) | 0.53 nM |
| Cc1nc2ccccc2nc1SCC(=O)N1CCC(C)CC1 | 2.77 nM |
| Cc1ccc(C(=O)c2coc3ccc(OCC(=O)O)cc23)cc1 | 2.78 nM |
| CCCCc1nc(N2CCOCC2)c(C#N)c2c1CCCC2 | 0.98 nM |
| CCOC(=O)c1cnc2ccc(OCC)cc2c1N(C)Cc1ccccc1 | 2.48 nM |
| O=C(Nc1ccccc1N1CCCCC1)c1cccc([N+](=O)[O-])c1 | 0.9 nM |
| CCOP(=O)(c1ccccc1)c1nc(-c2ccccc2C)oc1N1CCCCC1 (stereo not drawn) | 0.69 nM |
| O=C(Nc1ccccc1)c1nn(-c2cccc(C(F)(F)F)c2)ccc1=O | 2.72 nM |
| Cc1ccc(CN2C(=O)CN=C(c3ccccc3)c3ccccc32)cc1 | 1.23 nM |
| CC1(C)Cc2ccccc2-c2nc3n(c(=O)c21)CCS3 | 0.79 nM |
| Cc1nc(N(C)C)c2sc(=S)n(Cc3ccccc3)c2n1 | 1.21 nM |
| CN(C)Cc1ccccc1Sc1cccc2ccccc12 | 1.07 nM |
| CC(=O)Nc1nnc(CCN2CCCCC2)s1 | 1.46 nM |
| COc1cnc(SCc2c(Cl)cccc2Cl)nc1Cl | 1.76 nM |
| Cc1ccc(C(=O)c2c(NC(=O)c3ccncc3)sc3c2CCCC3)cc1 | 0.66 nM |

| Compound | PGE2 EC50 with compound |
| --- | --- |
| O=C(O)c1ccc(-c2ccccc2Cl)o1 | 1.44 nM |
| C=CCSc1nc2ccccc2c(=O)n1Cc1ccco1 | 0.91 nM |
| O=C(Nc1cccc2cccnc12)c1ccc(Br)o1 | 1.22 nM |
| CCCc1cc(=O)n2[nH]c(NCc3cccs3)nc2n1 | 2.54 nM |
| CN(C)c1ncc(S(=O)(=O)c2ccccc2)c(-c2ccccc2Cl)n1 | 0.72 nM |
| Cc1cccc(-n2c(CCn3nc(C)c([N+](=O)[O-])c3C)n[nH]c2=S)c1 | 2.79 nM |
| CCOC(=O)c1c(CC(C)C)csc1/N=C/C1C(=O)CCCC1=O | 1 nM |
| O=C(O)COc1ccc(/C=C/c2ccc3cccc([N+](=O)[O-])c3n2)cc1 | 2.11 nM |
| Cc1cc(SCCC(=O)O)nc2c(C)cccc12 | 1.01 nM |
| CCn1c(COc2ccc(Cl)cc2)nnc1SCC(=O)Nc1ccc2c(c1)OCO2 | 1.09 nM |
| CCCCCCCCCc1ccc(O)cc1 | 0.74 nM |
| COc1cc2c(cc1OC)CN(c1ccc(-c3ccccc3OC)nn1)CC2 | 1.64 nM |
| O=C(O)COc1cccc(NC(=O)c2ccccc2)c1 | 2.83 nM |
| O=C(Nc1cccc(Cl)c1N1CCCC1)c1ccc(Br)o1 | 1.61 nM |
| CC1CCN(c2ccccc2NC(=O)c2ccc(C#N)cc2F)CC1 | 0.93 nM |
| CCCCOP(=O)(OCCCC)C(Nc1ccccc1)c1ccc2c(c1)OCO2 (stereo not drawn) | 0.8 nM |
| Cc1ccccc1S(=O)(=O)c1c(C)cc(C)n(CC(C)C)c1=O | 2.47 nM |
| CCN(CC)C(=O)Cn1cc(C(=O)C(=O)NCc2ccco2)c2ccccc21 | 1.55 nM |
| CCOC(=O)c1c(NC(=O)CN2CCCCC2)sc2c1CCN(C(=O)OCC)C2 | 0.9 nM |
| CC(=O)C1CC[C@H]2C3CC[C@H]4C[C@H](O)CC[C@]4(C)C3CC[C@]12C (stereo partly drawn) | 0.89 nM |
| CCCCNc1nc(N(C)c2ccccc2)nc(-n2ccnc2)n1 | 1.11 nM |
| Fc1cccc(CSc2ncnc3c2oc2ccccc23)c1 | 2.7 nM |

| Compound | PGE2 EC50 with compound |
| --- | --- |
| O=C(COC(=O)c1ccc(S(=O)(=O)N2CCCC2)cc1)Nc1ccc(F)cc1F | 1.73 nM |
| Cc1ccc(-n2c(=S)[nH]c3c(oc4ccccc43)c2=O)cc1C | 1.76 nM |
| COCCOC(=O)c1c(C)oc2ccc(OCc3ccccc3)cc12 | 1.04 nM |
| CC1=CC2C(CC1=O)C(C)=CCC2C(C)C (stereo not drawn) | 0.86 nM |
| NC(=NCCC[C@H](N)C(=O)O)N[N+](=O)[O-] | 1.93 nM |
| Cc1cc(SCC(=O)c2ccccc2)nc2ccccc12 | 1.09 nM |
| N#CC1=C(S)N(c2ccccc2)C2(CCCCC2)NC1=O | 1.12 nM |
| Cc1cccc(NC2=NC(=S)N(c3ccc(C(=O)O)cc3)C23CCCCC3)c1 | 0.8 nM |
| CSc1nnc2c3ccccc3c3ccccc3c2n1 | 1 nM |
| O=C(O)CCSc1ccc2ccccc2n1 | 2.87 nM and 2.98 nM |
| Oc1c(Cl)cc(Cl)cc1Sc1cc(Cl)cc(Cl)c1O | 0.58 nM |
| CCc1ccc2[nH]c(=O)c(C(c3nnnn3CC3CCCO3)N3CCCc4ccccc43)cc2c1 (stereo not drawn) | 0.99 nM |
| CCOC(=O)Cc1csc(NC(=O)c2cc(=O)c3ccccc3o2)n1 | 1.36 nM |
| Cc1cccc(C)c1N1CCN(c2ccc3nnc(C(F)(F)F)n3n2)CC1 | 0.52 nM |
| C=C1CCC2C(CC2(C)C)C(=C)CC/C1=N/O (stereo not drawn) | 1.61 nM |
| Cc1cccc(C(=O)c2cnc3ccccc3c2-c2ccccc2)c1 | 0.95 nM |
| Brc1ccc(Cn2c(-c3cncs3)nc3ccccc32)cc1 | 1.66 nM |
| CCOC(=O)c1sc(NC(=O)C(CC)OC(=O)C(CC(C)C)NC(=O)c2ccccc2)nc1C (stereo not drawn) | 1.22 nM |
| C=CCc1cc(C=O)cc(OCC)c1OCc1ccc(Cl)cc1 | 1.29 nM |
| CN(CC(=O)Nc1ccccc1-c1ccccc1)Cc1ccccc1Cl | 0.95 nM |
| O=C(CSc1nc2ccccc2o1)Nc1cc(C(F)(F)F)ccc1N1CCOCC1 | 0.77 nM |
| Cc1ccc2c(c1)N(S(=O)(=O)c1ccc(F)cc1)C(C(C)(C)C)CO2 (stereo not drawn) | 1.11 nM |

| Compound | PGE2 EC50 with compound |
| --- | --- |
| CCn1c2ccc(F)cc2c2nc3ccccc3nc21 | 0.86 nM |
| N/C(CSc1nc(-c2ccccc2)c(-c2ccccc2)o1)=N\O | 1.14 nM |
| O=C(c1ccc(Br)o1)N(Cc1ccccc1)Cc1ccccc1 | 0.77 nM |
| Nc1ccc(Br)cc1C(=O)c1ccccc1 | 0.43 nM |
| Cc1ccccc1CN(C)CC(=O)Nc1ccccc1Oc1ccccc1 | 1.12 nM |
| CC(=O)Oc1ccc2ccccc2c1C(NC(=O)Cc1ccccc1)c1ccccc1 (stereo not drawn) | 1.1 nM |
| Cc1ccc(N=N/C(=C\O)C(=O)c2ccc(Cl)cc2)cc1 | 0.87 nM |
| CC(C)c1nc(N2CCN(C(=O)c3ccccc3)CC2)c(C#N)c2c1COC(C)(C)C2 | 0.97 nM |
| CCOC(=O)c1c(C2COc3ccccc3O2)csc1N (stereo not drawn) | 1.39 nM |
| O=C(NCCC1=CCCCC1)c1cccc2c1C(=O)N(C1CCCCC1)C2 | 1.18 nM |
| CC1=CC(C)(C)N(S(=O)(=O)c2ccc(C)cc2)c2cc(C)ccc21 | 1.17 nM |
| CCCCn1c(C)cc(C)c(S(=O)(=O)c2ccccc2C)c1=O | 1.08 nM |
| CC(C)(C)c1nc2ccccc2c(=O)n1N1C(=O)c2ccccc2C1=O | 0.82 nM |
| O=S(=O)(O)c1ccc2c(N=Nc3c(O)ccc4ccccc34)cccc2c1 | 1.28 nM |
| CCOP(=S)(OCC)Oc1nc(Cl)c(Cl)cc1Cl | 0.91 nM |
| CCCCc1nc2sc3c(SCC(=O)NCc4ccco4)ncnc3c2c2c1CCC2 | 2.5 nM |
| Nc1ccc(SC(F)(F)F)cc1C(=O)c1ccccc1 | 2.39 nM |
| CCOC(=O)c1c(-c2cccs2)csc1NC(=O)CN1CCOCC1 | 0.99 nM |
| CCOc1ccccc1-c1nc2c(C(C)(C)C)nn(C)c2c(=O)[nH]1 | 1.51 nM |
| COc1ccc(OC)c(C(=O)c2coc3ccc(OCC(=O)O)cc23)c1 | 0.98 nM |
| O=C1COc2ccccc2N1Cc1ccccc1Cl | 1.38 nM |
| O=C(Nc1ccccc1N1CCCCC1)c1ccccc1F | 0.61 nM |

| Compound | PGE2 EC50 with compound |
| --- | --- |
| Cc1noc2ncnc(Sc3c(Cl)cccc3Cl)c12 | 0.75 nM |
| COc1cccc(N=c2oc3c(C)ncc(CO)c3cc2C(=O)Nc2ccccc2OC)c1 | 1.48 nM |
| COC(=O)CSc1nc(-c2ccccc2)nc2ccccc12 | 1.02 nM |
| N#CC1(Cc2ccccc2Cl)c2ccccc2C=CN1C(=O)c1ccccc1 (stereo not drawn) | 1.54 nM |
| CCOC(=O)c1c(NC(=O)c2ccoc2C)sc(C(=O)N(C)C)c1C | 0.8 nM |
| CC1=CC(C)(C)N2C(=O)C3(SCC(=O)N3c3ccc(F)cc3)c3cc(C)cc1c32 (stereo not drawn) | 1.12 nM |
| C/C(Cl)=C/Cn1c(SC(C)C)nc2c1c(=O)[nH]c(=O)n2C | 0.95 nM |
| O=C(CSc1nnc(COc2ccccc2)n1-c1ccccc1)c1ccccc1 | 1.19 nM |
| Cc1nc2c3cc(F)ccc3n(Cc3ccccc3)c2s1 | 0.57 nM |
| Cc1cc2ccccc2nc1SCC(=O)NC1CCCCC1 | 2.75 nM |
| O=S1(=O)CCN(Cc2cccc(Cl)c2)CC1 | 1.39 nM |
| Cc1sc(NC(=O)c2ccccc2F)c(CN2CCCCC2C)c1C (stereo not drawn) | 0.88 nM |
| O=C(CC(Sc1ccccc1)c1cccs1)c1ccco1 (stereo not drawn) | 0.88 nM |
| FC(F)(F)c1cccc(/C=N/NC(=S)NC2CCCCC2)c1 | 0.42 nM |
| COC(=O)c1cc2ccsc2n1Cc1cccc(F)c1 | 0.95 nM |
| Cc1ccc(C(=O)N2N=C(c3ccccc3)CC2(O)C(F)(F)F)o1 (stereo not drawn) | 1.62 nM |
| COc1cc(-c2noc(-c3cccc(Cl)c3)n2)cc(OC)c1OC | 1.11 nM |
| Cc1nccc2[nH]c(=O)c(C(=O)NC3CCCCC3C)cc12 (stereo not drawn) | 1.44 nM |
| CCc1nc(N2CCCCC2)c2oc3ccccc3c2n1 | 0.8 nM |
| COc1ccccc1Nc1cc(C)nc2c(C)ccc([N+](=O)[O-])c12 | 1.12 nM |

— PubChem BioAssay AID1421 (Emory University Molecular Libraries Screening Center, 2008)
